In patent US20180369203A1, “METHODS OF TREATING CANCER BY ADMINISTERING A MEK INHIBITOR IN COMBINATION WITH A PROTEASOME INHIBITOR” (The Jackson Laboratory, priority 2015, published 2018):

How the values were obtained:
polyQ79 = polyQ79 aggregate size in HEK293T cells (Coulter counter); assay type: cell-based; conditions: 20 nM AZD6244, 100 nM Bortezomib, or both
Method: (§1) FIGS. 5A-Y show MEK and proteasome inhibition provoke protein aggregation and amyloidogenesis. (A-B) WM115 cells treated with 20 nM AZD6244, 100 nM Bortezomib, or both for 24 hr were stained with Lys48-specific ubiquitin antibodies. Arrowheads mark ubiquitin-positive aggregates. Scale bar: 10 μm. Amounts of aggregates per cell were quantitated using ImageJ (median, n≥100, ANOVA). (C-F) Following transfection with polyQ79 plasmids alone or with both polyQ79 and HSF1^S326D plasmids for one day, HEK293T cells were treated with inhibitors as described in (A-B). Cells were either analyzed for aggregate size or stained with 10 μM ThT. (G) Treated tumor cell lines were stained with 10 μM ThT. Geometric means were used to calculate fold changes in ThT fluorescence intensity and the log 2(FC) values were presented as a heat map. (H) HEK293T cells were transfected with LacZ or polyQ79 plasmid. Following treatments, AOs were quantitated by ELISA using A11 antibodies (mean±SD, n=3, ANOVA). (I) Intrinsic AOs were detected in human tumor cell lines (mean±SD, n=3, ANOVA). […] Amyloids were quantitated by ELISA (mean±SD, n=3, Student's t-test). […] AF formation was monitored by ThT binding (mean±SD, n=3, ANOVA). […] Amyloids were quantitated (mean±SD, n=3, Student's t-test). […] Viable cells were quantitated by CellTiter® blue (mean±SD, n=6, Student's t-test). […] Viable cells were quantitated (mean±SD, n=6, ANOVA). […]

polyQ79-expressing cells = assay: ThT and CR staining of polyQ79-expressing cells (flow cytometry); assay type: cell-based; conditions: HEK293T; 20 nM AZD6244, 100 nM Bortezomib, or both
Method: as §1

amyloid oligomers (AOs) [1] = assay: Amyloid oligomer ELISA (A11) in human tumor, immortalized and primary cells; assay type: cell-based; conditions: 20 nM AZD6244, 100 nM Bortezomib, or both, 24 hr
Method: FIGS. 5A-Y show MEK and proteasome inhibition provoke protein aggregation and amyloidogenesis. (A-B) WM115 cells treated with 20 nM AZD6244, 100 nM Bortezomib, or both for 24 hr were stained with Lys48-specific ubiquitin antibodies. Arrowheads mark ubiquitin-positive aggregates. Scale bar: 10 μm. Amounts of aggregates per cell were quantitated using ImageJ (median, n≥100, ANOVA). (C-F) Following transfection with polyQ79 plasmids alone or with both polyQ79 and HSF1^S326D plasmids for one day, HEK293T cells were treated with inhibitors as described in (A-B). Cells were either analyzed for aggregate size or stained with 10 μM ThT. (G) Treated tumor cell lines were stained with 10 μM ThT. Geometric means were used to calculate fold changes in ThT fluorescence intensity and the log 2(FC) values were presented as a heat map. (H) HEK293T cells were transfected with LacZ or polyQ79 plasmid. Following treatments, AOs were quantitated by ELISA using A11 antibodies (mean±SD, n=3, ANOVA). (I) Intrinsic AOs were detected in human tumor cell lines (mean±SD, n=3, ANOVA). […] Amyloids were quantitated by ELISA (mean±SD, n=3, Student's t-test). […] AF formation was monitored by ThT binding (mean±SD, n=3, ANOVA). […] Amyloids were quantitated (mean±SD, n=3, Student's t-test). […] Viable cells were quantitated by CellTiter® blue (mean±SD, n=6, Student's t-test). […] Viable cells were quantitated (mean±SD, n=6, ANOVA). Relative changes in viable cells after treatment were calculated by normalizing the values of AZD6244-treated cells against the values of DMSO-treated cells at each time point. (U)-(W) Following treatments with 20 nM AZD6244, 100 nM Bortezomib, or both for 24 hr, AOs were quantitated in primary MEFs and human cells (mean±SD, n=3, ANOVA). (X and Y) Cells were treated with 50 μM Q-VD-OPh overnight and AOs were quantitated (mean±SD, n=3, Student's t-test). […]
To quantitate soluble amyloid prefibrillar oligomers, 20 μg soluble cellular proteins diluted in PBS were incubated for each well in a 96-well ELISA plate at 4° C. overnight followed by blocking (5% non-fat milk in PBS-T) at RT for 1 hr. […]

amyloid oligomers (AOs) [2] = assay: Amyloid oligomer ELISA (A11) in murine cells (primary MEFs, NIH3T3); assay type: cell-based, mouse; conditions: different concentrations of Bortezomib, 24 hrs
Method: as §1, with “(H) HEK293T cells were transfected with LacZ or polyQ79 plasmid.” left out
This figure is related to FIG. 5. […] (C) Quantitation of protein aggregate size. […]

SMILES: CC(C)C[C@H](NC(=O)[C@H](Cc1ccccc1)NC(=O)c1cnccn1)B(O)O [Bortezomib, bortezomib]
- polyQ79 aggregate size (polyQ79): enhanced
- ThT and CR staining of polyQ79-expressing cells (polyQ79-expressing cells): further intensified
- AO levels in MCF10A cells (amyloid oligomers (AOs) [1]; immortalized human mammary epithelial cells): slight induction
- AO levels in PHMC (amyloid oligomers (AOs) [1]; primary human mammary epithelial cells): no induction
- AO levels in MCF7 cells (amyloid oligomers (AOs) [1]; tumorigenic mammary epithelial cells): marked AO induction
- endogenous amyloid oligomers in NIH3T3 cells (amyloid oligomers (AOs) [2]): capable of inducing amyloidogenesis
